Results reported in ChEMBL document CHEMBL5053491, “Rational designed highly sensitive NQO1-activated near-infrared fluorescent probe combined with NQO1 substrates in vivo: An innovative strategy for NQO1-overexpressing cancer theranostics” (Eur J Med Chem, 2021).
≈ marks a conversion by molar mass, not a printed value.

Columns and labels:
[1] = molecular target: NAD(P)H dehydrogenase [quinone] 1 (Homo sapiens) (UniProt P15559); test: Substrate activity at recombinant human NQO1 assessed as enzyme activity by measuring oxidation of NADPH incubated for 5 mins measured per micromol of NADPH by NADPH recycling assay
Sequence of NAD(P)H dehydrogenase [quinone] 1 (Homo sapiens) (P15559 whole entry): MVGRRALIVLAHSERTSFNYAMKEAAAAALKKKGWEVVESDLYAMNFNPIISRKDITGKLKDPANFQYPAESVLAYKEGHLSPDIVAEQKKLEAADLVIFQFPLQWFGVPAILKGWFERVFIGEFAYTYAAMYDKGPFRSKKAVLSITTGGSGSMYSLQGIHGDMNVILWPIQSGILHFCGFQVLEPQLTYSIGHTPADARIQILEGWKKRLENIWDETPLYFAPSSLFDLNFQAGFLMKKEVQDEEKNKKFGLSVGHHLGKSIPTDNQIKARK

A549 [2] = test: Antitumor activity against human A549 cells xenografted in BALB/c nude mouse assessed as tumor inhibition rate at 30 mg/kg, ip administered for 21 days; type: functional; design: scale not given: the % may be the effect or the level left; settings: time 21 day
A549 [3] = test: Antitumor activity against human A549 cells xenografted in BALB/c nude mouse assessed as tumor volume change at 30 mg/kg, ip administered for 21 days; type: functional; settings: time 21 day
[4] = Drug uptake in BALB/c nude mouse infected with human A549 cells at 5 mg/kg, iv measured upto 15 mins by fluorescence spectrophotometric analysis; type: ADME, organism-based; settings: in vivo, 0.25 h
A549 [5] = test: Cytotoxicity against human A549 cells assessed as growth inhibition measured after 72 hrs by MTT assay; type: functional; design: scale not given: the % may be the effect or the level left
[6] = Drug uptake in NQO1-deficient human NCI-H596 cells at 10 uM incubated for 20 mins by confocal microscopy; type: ADME, cell-based; settings: nci-h596, 20 min
[7] = Stability of compound in rat plasma assessed as compound remaining at 37 degree C measured after 24 hrs by HPLC analysis; type: ADME, cell-free
[8] = Drug uptake in NQO1 rich human A549 cells at 10 uM incubated for 20 mins by confocal microscopy; type: ADME, cell-based; settings: a549, 20 min
[9] = Stability of compound in PBS at pH 4 to 9 assessed as compound remaining at 37 degree C measured after 24 hrs by HPLC analysis; type: physicochemical; settings: buffer, pH 4, 24 h
A549 [10] = test: Antitumor activity against human A549 cells xenografted in BALB/c nude mouse assessed as fluorescence intensity at 30 mg/kg, ip administered for 21 days; type: functional; settings: time 21 day
[11] = Stability of compound in human plasma assessed as compound remaining at 37 degree C measured after 24 hrs by HPLC analysis; type: ADME, cell-free
[12] = Water solubility of compound by HPLC analysis; type: physicochemical
[13] = Stability of compound in mouse plasma assessed as compound remaining at 37 degree C measured after 24 hrs by HPLC analysis; type: ADME, cell-free

O=C(O)CCC1=CC(=O)c2ccccc2C1=O
Activity [1]: 900 µmol/min

Cc1cc2c(cc1C)-c1oc(CN3CCN(C)CC3)c(C)c1C(=O)C2=O
Activity (A549 [2]): 79.8%
Activity (A549 [3]): 77%

CC1=C(C)C(=O)C(C(C)(C)CC(=O)N(C)c2ccc(COC(=O)N3c4ccc(N(C)C)cc4Sc4cc(N(C)C)ccc43)cc2)=C(C)C1=O
Drug uptake [4]: Not Active

CC1=C(CCC(=O)O)C(=O)c2ccccc2C1=O
Activity [1]: 1080 µmol/min

CC1=C(C(C)(C)CC(=O)O)C(=O)c2ccccc2C1=O
Activity [1]: 1480 µmol/min

CC1=C(C(C)(C)CC(=O)N(C)c2ccc(COC(=O)N3c4ccc(N(C)C)cc4Sc4cc(N(C)C)ccc43)cc2)C(=O)c2ccccc2C1=O
Activity (A549 [5]): >80%
Drug uptake [6]: Not Active
Stability [7]: Stable
Drug uptake [8]: Active
Stability [9]: Stable
Activity (A549 [10]): 75.6%
Stability [11]: Stable
Drug uptake [4]: Active
solubility [12]: 6.5 µg/mL (≈ 9.25 µM)
Stability [13]: Stable

CC1=C(C)C(=O)C(C(C)(C)CC(=O)O)=C(C)C1=O
Activity [1]: 1070 µmol/min

CC1(C)CCC2=C(O1)c1ccccc1C(=O)C2=O [LAPACHONE]
Activity (A549 [2]): 67.7%
Activity (A549 [3]): 69.1%

O=c1[nH]cc(F)c(=O)[nH]1 [FLUOROURACIL]
Activity (A549 [10]): 75.7%

CC(C)(CC(=O)O)C1=CC(=O)c2ccccc2C1=O
Activity [1]: 1220 µmol/min
